{"source": "paper PMC8348142", "about": "“Antimicrobial Peptide Modifications against Clinically Isolated Antibiotic-Resistant Salmonella” (Molecules, 2021)", "test_system": "clinical Salmonella isolates", "experiment": "MBC, drop plate method, and MBC/MIC mode of action", "type": "cell-based", "details": "for MBC: drop plate on MHA from MIC plate, 37 °C, 18 h, thrice", "method": "All 12 isolates of Salmonella used in this study were clinical isolates and anonymous left-overs from laboratory diagnoses. They were maintained in a 20% glycerol (Sigma-Aldrich) stock at −80 °C and further cultured on Mueller-Hinton agar (MHA, Oxoid, Hampshire, UK) at 37 °C for 18 h to obtain single colonies for antimicrobial assays. This study was approved by the Ethics Committee of the Faculty of Tropical Medicine (Mahidol University, Bangkok, Thailand; MUTM-EXMPT 2017-007).\nThe plate derived from the MIC assay was immediately tested for the MBC using a drop plate method. A volume of 10 µL of the culture from individual wells at MIC, 2MIC, and 4MIC was dropped on MHA plates. […] The experiment was thrice performed.\nIn order to determine whether the peptides have bacteriostatic or bactericidal activity, a ratio of MBC to MIC (MBC/MIC) was applied. The ratio >4 was indicative of bacteriostatic peptide, and ≤4 was inferred as bactericidal peptide.", "note": "Ends that are not written are not given here."}
{"substance": "FIRRIARLLRRIF-NH2 [Kn2-5R-NH2]", "values": [{"measurement": "GM of MBC", "setting": "geometric mean over 12 clinical Salmonella isolates", "value": 4, "unit": "µM"}, {"measurement": "MBC", "setting": "isolate 5 (Enteritidis)", "value": 4, "unit": "µM"}, {"measurement": "MBC", "setting": "isolate 7 (Typhimurium)", "value": 4, "unit": "µM"}, {"measurement": "MBC", "setting": "isolate 11 (I 1,4:i:-)", "value": 4, "unit": "µM"}, {"measurement": "MBC", "setting": "isolate 18 (Stanley)", "value": 4, "unit": "µM"}, {"measurement": "MBC", "setting": "isolate 26 (Typhimurium)", "value": 4, "unit": "µM"}, {"measurement": "MBC", "setting": "isolate 27 (Typhimurium)", "value": 4, "unit": "µM"}, {"measurement": "MBC", "setting": "isolate 55 (Typhimurium)", "value": 4, "unit": "µM"}, {"measurement": "MBC", "setting": "isolate 61 (Enteritidis)", "value": 4, "unit": "µM"}, {"measurement": "MBC", "setting": "isolate 69 (Typhimurium)", "value": 4, "unit": "µM"}, {"measurement": "MBC", "setting": "isolate 76 (Enteritidis)", "value": 4, "unit": "µM"}, {"measurement": "MBC", "setting": "isolate 78 (Enteritidis)", "value": 4, "unit": "µM"}, {"measurement": "MBC", "setting": "isolate 107 (Typhimurium)", "value": 4, "unit": "µM"}, {"measurement": "MBC/MIC ratio", "setting": "≤4 bactericidal, >4 bacteriostatic, 12 clinical Salmonella isolates", "value": 1}]}
